Values quoted from earlier work in patent US20060024360A1, “Stable injectable composition of alpha tocopheryl succinate, analogues and salts thereof” (SD Pharmaceuticals, Inc., priority 2004, published 2006).
Where a name gives a salt, the structure may show the parent alone.

Experiments:
[1] = system: mouse cancer line (C1271)
[2] = system: malignant mesothelioma; conditions: immunocompromised mice
[3] = system: human gastric carcinoma cell; conditions: human cells
[4] = system: melanoma; conditions: mice
[5] = system: color cancer liver metastases; conditions: in vivo

| SMILES | induction of apoptosis [1] | other results |
| --- | --- | --- |
| Cc1c(C)c2c(c(C)c1O)CC[C@@](C)(CCC[C@H](C)CCC[C@H](C)CCCC(C)C)O2 (racemic) [alpha-tocopherol, (±)-(2RS,4′RS,8′RS)-2,5,7,8-tetramethyl-2-(4′,8′, 12′-trimethyltridecyl)-6-chromanol] | not apoptogenic |  |
| CC(=O)Oc1c(C)c(C)c2c(c1C)CCC(C)(CCC[C@H](C)CCC[C@H](C)CCCC(C)C)O2 (stereo partly drawn) [alpha-tocopheryl acetate] | not apoptogenic |  |
| Cc1c(C)c2c(c(C)c1OC(=O)CC(=O)O)CCC(C)(CCCC(C)CCCC(C)CCCC(C)C)O2 (stereo not drawn) [alpha-tocopheryl malonate, Alpha-tocopheryl malonate] | induce apoptosis |  |
| Cc1c(C)c2c(c(C)c1OC(=O)c1cccnc1)CC[C@@](C)(CCC[C@H](C)CCC[C@H](C)CCCC(C)C)O2 [alpha-tocopheryl nicotinate] | not apoptogenic |  |
| Cc1c(C)c2c(c(C)c1OC(=O)C(=O)O)CCC(C)(CCCC(C)CCCC(C)CCCC(C)C)O2 (stereo not drawn) [alpha-tocopheryl oxalate, Alpha-tocopheryl oxalate] | induce apoptosis | relative potency among alpha-tocopheryl derivatives tested [1]: most potent |
| Cc1c(C)c2c(c(C)c1OC(=O)CCCCCC(=O)O)CCC(C)(CCCC(C)CCCC(C)CCCC(C)C)O2 (stereo not drawn) [alpha-tocopheryl pimelate, Alpha-tocopheryl pimelate] | not apoptogenic |  |
| CCOC(=O)CCC(=O)Oc1c(C)c(C)c2c(c1C)CCC(C)(CCCC(C)CCCC(C)CCCC(C)C)O2 (stereo not drawn) [alpha-tocopheryl succinate ethyl ester] | not apoptogenic |  |
| Cc1c(C)c2c(c(C)c1OC(=O)CCC(=O)O)CC[C@@](C)(CCC[C@H](C)CCC[C@H](C)CCCC(C)C)O2 [alpha-tocopheryl succinate] | induce apoptosis | malignant mesothelioma [2]: suppressed malignant mesothelioma; gastric carcinoma cell growth [3]: inhibits human gastric carcinoma cell growth; melanoma growth [4]: inhibited melanoma growth; liver metastases [5]: inhibiting color cancer liver metastases |
| Cc1c(O)cc2c(c1C)O[C@](C)(CCC[C@H](C)CCC[C@H](C)CCCC(C)C)CC2 [gamma-tocopherol, Gamma-tocopherol] | not apoptogenic |  |
